Laboratory results reported in publication PMC10861593, “Kisspeptin-10 binding to Gpr54 in osteoclasts prevents bone loss by activating Dusp18-mediated dephosphorylation of Src” (Nature Communications, 2024).
Where a SMILES comes first, the peptide text is derived from it.

How the values were obtained:
[1] = test system: GPR54 / Src interaction; test: Co-IP: interaction of GPR54 with Src in transfected 293T cells; format: cell-based, human; conditions: inhibitor 1 h (U73122 10 µM, Staurosporine 0.25 µM, LY3214996 10 µM, KN-93 10 µM, Saracatinib 10 µM), then 10 nM Kp-10 20 min
Method: Data represent means ± SEM. P values were determined by one-way ANOVA analysis (b, c, e, g, i, k). Representative results were obtained from at least three independent experiments. Source data are provided as a Source Data file.
Whole-cell proteins were extracted using 1x RIPA buffer (25 mM Tris, pH7.5, 150 mM NaCl, 0.5% Sodium deoxycholate, 1% Triton-X-100) supplemented with protease inhibitors (Complete Mini, Roche) and phosphatase inhibitors (phosphatase inhibitor cocktail set I and II, Calbiochem). Immunoprecipitation and immunoblotting with indicated antibodies were performed as described in Supplementary Table 1. Image Jsoftware (V1.52) was used for quantification analysis. Uncropped and unprocessed blots are presented in the Supplementary Information file.
Error bars are ± SEM. […] Source data are provided as a Source Data file.

[2] = biological target: T1, DUSP18 (Homo sapiens, UniProt Q8NEJ0); test: SPR (Biacore T200) binding to DUSP18
T1 construct: For purification of full-length WT human DUSP18 and DUSP18 (C104S) proteins; His (N); made in house; host or cells: E. coli
T1 sequence (Q8NEJ0 1-188): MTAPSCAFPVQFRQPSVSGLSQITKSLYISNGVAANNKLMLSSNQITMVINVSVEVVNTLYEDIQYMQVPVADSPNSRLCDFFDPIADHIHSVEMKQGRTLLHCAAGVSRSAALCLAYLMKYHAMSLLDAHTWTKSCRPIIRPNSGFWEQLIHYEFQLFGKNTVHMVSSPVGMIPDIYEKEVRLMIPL
Method: SPR was determined using a Biacore T200 instrument (GE). SRC or DUSP18 protein was immobilized on the sensor chip (CM5) using the amine-coupling method according to standard protocols. Immobilization was performed according to the manufacturer’s recommendations. SRC protein (64 ug/mL, pH5.0) or DUSP18 protein (25 ug/mL, pH7.4) was diluted in 10 mM acetate buffer or 10 mM PBS buffer. Sh2-sh3 (100 ug/mL, pH5.0) was diluted in 10 mM acetate buffer. The kinetics and affinity assay were examined at 25 °C at a flow rate of 30 µl/minute using PBS buffer with 0.05% Tween-20. The KD values were calculated with the kinetics analysis (1:1 model) of Biacore T200 evaluation software. The interaction of GPR54 CT, peptides of PR motifs with Src or DUSP18, and the interaction of DUSP18 and Src were analyzed respectively by regeneration with pH 2.0 Gly-HCl buffer.
The C terminus of human GPR54 (H329- L398) and mouse Gpr54 (R331- L396) cDNAs were subcloned into a pGEX-4T2 vector. For purification of full-length WT human DUSP18 and DUSP18 (C104S) proteins, DUSP18 was cloned into pMCSG7 vector. […]

[3] = test system: Dusp18 knockout mice; test: bone and osteoclast parameters in Dusp18 knockout mice; format: in vivo, mouse; conditions: TRAP staining and osteoclast parameters, femur
Description: Data represent means ± SEM. […] Representative results were obtained from at least three independent experiments. Source data are provided as a Source Data file.

[4] = test system: Src; test: GST pull-down with WCL of 293T cells transfected with HA-Src; format: binding
Description: Fig. 2 GPR54 recruited Src via the PR motif in GPR54 C-Terminus. a Sequence analysis of the PR motif in multiple species of GPR54 CT. b SH3 domain protein-binding array using the TranSignal™ SH3 Domain Array kit. The principal Src binding region is circled in red evident (1 Src; 2 the dilution of Src in half). c SPR binding-affinity measurement of Src and GPR54 CT. […] GPR54 CT bound with the SH3 domain of Src mainly via the key residues including R336, P339 and P342. e–h IB analysis of total samples and GST pull-downs using GST proteins including GST, GST-GPR54 CT, GST-GPR54 CT m1 (R336A&P339A), GST-GPR54 CT m2 (delta 339–344) incubated separately with WCL of 293 T cells transfected with HA-Src (e) and quantification of protein levels (f), IB analysis of WCL and anti-GPR54 IP assays derived from RAW264.7 cells induced by Kp-10 for 20 min (g) and quantification of protein levels (h). i, j IF staining was carried out using pre-osteoclasts differentiated from BMMs with M-CSF (10 ng/ml) and RANKL (50 ng/ml) stimulation for 2 days, then treated with 10 nM Kp-10 for 20 min. Representative images of endogenous Gpr54 and Src were shown by total internal reflection fluorescence (TIRF) microscopy (i), and the Mander’s overlap coefficient (MOC) as a measure of colocalization in cells from multiple images taken randomly (j). Scale bar, 50 μm. Data represent means ± SEM. […] These are best readings. […]

[5] = test system: DUSP18; test: GST pull-down with WCL of 293T cells transfected with DUSP18; format: binding; conditions: WCL of 293T cells transfected with DUSP18-HA
Method: Beads were analyzed by phosphatase activity assay (a), mass spectrometry assay (b), IB analysis (c) and quantification of protein levels (d). e, f Protein co-localization was analyzed by IF staining in primary pre-osteoclast with 10 nM Kp-10 treatment for 20 min. […] Scale bar, 50 µm. g, h binding affinity was measured by SPR binding analysis. […] Data represent means ± SEM. P values were determined by one-way ANOVA analysis (a, d, j, l) or two-tailed Student’s t-test (f). Representative results were obtained from at least three independent experiments. Source data are provided as a Source Data file.
Supplementary Fig. 6 a, b IB and quantification of protein levels analysis. […] Error bars are ± SEM. P-values were determined by two-tailed Student’s t-test (b, e) or by one-way ANOVA analysis (h, j). *P <0.05, **P <0.01, ***P <0.001, ****P <0.0001. Representative results were observed from at least three independent experiments. Source data are provided as a Source Data file.

[6] = biological target: T2, His-SRC protein, Src (G85-L536) (human, UniProt P12931 85-536); test: SPR; Biacore T200, SRC protein immobilised on CM5 by amine coupling (64 ug/mL, pH 5.0, acetate); 25 °C, 30 µl/minute, PBS with 0.05% Tween-20; kinetics analysis, 1:1 model; conditions: both partners purified
T2 construct: human Src, G85-L536, in pFastBac HT B; In the SPR it is called 'SRC protein'; removal of the tag is not mentioned; source: Sf9 (Bac-to-Bac baculovirus), purified; not shown: His6, N-terminal, kept

Molecule: COc1ccc2c(c1)CC[C@@H]1[C@@H]2CC[C@]2(C)[C@@H](NCCCCCCN3C(=O)C=CC3=O)CC[C@@H]12 [U73122]
- effect on Kp-10 induced interaction of GPR54 with Src [1]: not by the inhibitors

Molecule: CC(C)[C@H](NC(=O)[C@@H](N)CCCNC(=N)N)C(=O)N[C@@H](CS)C(=O)N1CCC[C@H]1C(=O)N[C@@H](CS)C(=O)N[C@@H](CS)C(=O)N[C@@H](CCCNC(=N)N)C(=O)O [Gpr54^336–342] (H-RVCPCCR-OH; N-terminus and C-terminus assumed)
- kon ([2]; printed in the picture of the figure, read-out: ka): 1130 ± 9500 M⁻¹ s⁻¹

Molecule: COc1ccc(S(=O)(=O)N(CCO)c2ccccc2CN(C)C/C=C/c2ccc(Cl)cc2)cc1 [KN-93]
- effect on Kp-10 induced interaction of GPR54 with Src [1]: not by the inhibitors

Molecule: O=C(Cc1ccc(-c2ccc(OCCN3CCOCC3)cc2)cn1)NCc1ccccc1 [KX2-391]
- rescue of Dusp18 deletion induced osteoclast activity [3]: efficiently rescued

Molecule: Gpr54^339–344: right-shifted mouse Gpr54 peptide which corresponds to the PxxRxR motif (PCCRQR)
- SPR curve when titrated with Dusp18 ([2]; synthesized mouse Gpr54 peptide): generated an unfitted SPR curve

Molecule: R336A&P339A mutant of human GPR54 CT: GST-GPR54 CT m1 (R336A&P339A)
- binding of Src (GST pull-down) [4]: dramatically dampened the interaction of Src with GPR54 CT
- binding of DUSP18 (GST pull-down) [5]: dampened its interaction with DUSP18

B1: GPR54^333–344 (N-terminal half of the PR motif) (peptide, UniProt Q969F8 333-344, looked up)
peptide: AFRRVCPCAPRR
notes: source: synthetic peptide (GL Biochem)
- Kd [6]: 28.3 µM

B2: peptide of GPR54^336–356 (peptide, UniProt Q969F8 336-356, looked up)
peptide: RVCPCAPRRPRRPRRPGPSDP
notes: human GPR54 (KiSS1R), residues 336-356 of the PR motif; source: synthetic peptide (GL Biochem)
- Kd [6]: 4.24 µM

B3: △339–344 (deletion sign: △) mutant of GPR54 CT: GST-GPR54 CT m2 (delta 339–344) (protein)
chain: HFRQAFRRVCPRRPRRPGPSDPAAPHAELLRLGSHPAPARAQKPGSSGLAARGLCVLGEDNAPL
modifications: left off: GST, N-terminal, kept
- binding of Src (GST pull-down) [4]: completely abolished the binding of Src with GPR54 CT
- binding of DUSP18 (GST pull-down) [5]: abolished the binding with DUSP18
